Data set [1] concerns the target T1, BACE1 (Homo sapiens (Human), UniProt P56817). Put plainly: BACE1 binding assay (SPA-based radioligand binding). The note with it: pH 4.5, 10 nM radioligand, Ki calculated from IC50. The method, then:
The binding assay was performed as SPA-based assay using a biotinylated form of human BACE1 recombinantly expressed and subsequently purified from Freestyle HEK293 cells. The binding assay was run in a 50 mM sodium acetate buffer, pH 4.5 containing 50 mM NaCl and 0.03% Tween-20 in white clear bottom 384 plates (Corning #3653). 10 nM (final concentration) radioligand ([^3H]—N-((1S,2R)-1-benzyl-3-cyclopropylamino-2-hydroxy-propyl)-5-(methanesulfonyl-methyl-amino)-N—((R)-1-phenyl-ethyl)-isophthalamide) (TRQ11569 purchased from GE Healthcare) was mixed with test compound at a given concentration, 6 nM (final concentration) human BACE1 and 25 μg Streptavidin coated PVT core SPA beads (RPNQ0007, GE Healthcare Life Sciences) in a total volume of 40 μl. Several concentrations of each test compound were tested in the assay for IC50 determination. The plates were incubated for one hour at room temperature and counted in a Wallac Trilux counter. Total and non-specific binding were determined using buffer and 1 μM (final concentration) of the high affinity BACE1 reference inhibitor (S)-6-[3-chloro-5-(5-prop-1-ynyl-pyridin-3-yl)-thiophen-2-yl]-2-imino-3,6-dimethyl-tetrahydro-pyrimidin-4-one, respectively. For each test compound, a IC50 value (the concentration mediating 50% inhibition of the specific binding of the radioligand) was determined from concentration-response curve and used to calculate the Ki from the equation Ki=IC50/(1+L/Kd), where L and Kd are the final concentration of the radioligand used in the assay and the dissociation constant of the radioligand, respectively. The Kd of the radioligand was determined from saturation binding experiments.

For data set [2], the target named is T1, BACE1. Put plainly: BACE1 efficacy assay (FRET-based, commercial BACE1 kit). In kind it is biochemical. The conditions noted are these: 10 μM test compound. The method, then: The efficacy assay was performed as a FRET-based assay using a commercially available BACE1 kit (Life Technologies, P2985). 2 μl test compound at 10 μM (final concentration) and 15 μl BACE1 enzyme from the kit (final concentration 3 nM) were preincubated for 15 minutes at room temperature before addition of 15 μl of substrate from the kit (250 nM final concentration) and incubated for additional 90 minutes at room temperature. The assay plate was subsequently read in a Pherastar (Ex540/Em590). The enzyme activity observed in presence of test compound were normalized to the enzyme activity observed in presence of buffer and 10 μM (final concentration) of the high affinity BACE1 reference inhibitor (S)-6-[3-Chloro-5-(5-prop-1-ynyl-pyridin-3-yl)-thiophen-2-yl]-2-imino-3,6-dimethyl-tetra-hydropyrimidin-4-one, respectively. The efficacy of the test compounds was evaluated at 10 μM (final concentration) and defined as the percent inhibition of the enzyme activity using the equation % inhibition=100%−normalized enzyme activity in percent.

Another data set deals with P-gp (MDR1). Put plainly: MDCK-MDR1 assay (permeability, efflux ratio). In kind it is in vitro ADME. The conditions noted are these: dog, Papp BA/Papp AB, 60-minute incubation, Pgp substrate when ≥2. Here is the method: The permeability of the test compounds was assessed in MDCK-MDR1 cells that were cultured to confluency (4-6 days) in a 96 transwell plate. Test compounds were diluted with the transport buffer (HBSS+1% BSA) to a concentration of 0.5 μM and applied to the apical or basolateral side of the cell monolayer. Permeation of the test compounds from A to B direction or B to A direction was determined in triplicate over a 60-minute incubation time at 37° C. and 5% CO2 with a relative humidity of 95%. Test compounds were quantified by LC-MS/MS analysis based on the peaks area ratios of analyte/IS in both the receiver and donor wells of the transwell plate.
The apparent permeability coefficient Papp (cm/s) was calculated using the equation: Papp=(dCr/dt)×Vr/(A×C0)
Where dCr/dt is the cumulative concentration of compound in the receiver chamber as a function of time (M/s); Vr is the solution volume in the receiver chamber (0.05 mL on the apical side; 0.25 mL on the basolateral side); A is the surface area for the transport, i.e. 0.0804 cm^2 for the area of the monolayer; C0 is the initial concentration in the donor chamber (VIM).
Compounds are classified Pgp substrates when efflux ratio (Papp BA/Papp AB) is ≥2.

The term Ki denotes a dissociation constant, usually derived from enzyme kinetics or from competition with a known ligand. A word on the inhibition: it is the relative decrease from the control value, in per cent. What is called efflux ratio is the permeability from basolateral to apical divided by that in the opposite direction, in the common usage.

T1 sequence (P56817 46-501): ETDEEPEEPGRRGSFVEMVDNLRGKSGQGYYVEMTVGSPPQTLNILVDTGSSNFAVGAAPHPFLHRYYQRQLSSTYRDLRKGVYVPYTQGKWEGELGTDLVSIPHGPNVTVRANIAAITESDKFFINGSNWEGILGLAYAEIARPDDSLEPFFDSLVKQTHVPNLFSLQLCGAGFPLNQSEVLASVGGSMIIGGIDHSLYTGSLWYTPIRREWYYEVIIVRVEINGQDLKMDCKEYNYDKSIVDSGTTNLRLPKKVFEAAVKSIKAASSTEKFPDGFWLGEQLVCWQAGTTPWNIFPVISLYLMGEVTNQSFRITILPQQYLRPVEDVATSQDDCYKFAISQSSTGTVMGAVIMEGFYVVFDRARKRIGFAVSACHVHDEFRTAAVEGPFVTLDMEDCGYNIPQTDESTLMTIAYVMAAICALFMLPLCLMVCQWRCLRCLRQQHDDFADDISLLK

In the case of `C[C@@]1(F)C[C@H](F)[C@@](C)(c2cc(NC(=O)c3ccc(F)cn3)ccc2F)N=C1N` [Compound 4, N-(3-((2R,3S,5R)-6-amino-3,5-difluoro-2,5-dimethyl-2,3,4,5-tetrahydropyridin-2-yl)-4-fluorophenyl)-5-fluoropicolinamide], the Ki at BACE1 [1] was 98 nM. Also, the inhibition at 10 µM on BACE1 [2] stood at 101%. The efflux ratio at 60 min, 0.5 μM in the data set with P-gp (MDR1) was 1.17.
Turning to `C[C@@]1(F)C[C@H](F)[C@@](C)(c2cc(NC(=O)c3ccn(C(F)F)n3)ccc2F)N=C1N` [Compound 14, N-(3-((2R,3S,5R)-6-amino-3,5-difluoro-2,5-dimethyl-2,3,4,5-tetrahydropyridin-2-yl)-4-fluorophenyl)-1-(difluoromethyl)-1H-pyrazole-3-carboxamide], the Ki on BACE1 [1] was 45 nM. In addition, the inhibition at 10 µM against BACE1 [2] was 112%. For the same compound, in the data set on P-gp (MDR1), the efflux ratio at 60 min, 0.5 μM turned out to be 15.8.
For `Cc1cc(C#N)cnc1C(=O)Nc1ccc(F)c([C@@]2(C)N=C(N)[C@@](C)(F)C[C@@H]2F)c1` [Compound 21, N-(3-((2R,3S,5S)-6-amino-3,5-difluoro-2,5-dimethyl-2,3,4,5-tetrahydropyridin-2-yl)-4-fluorophenyl)-5-cyano-3-methylpicolinamide] the same measures were 4.1 nM, 117% and 1.15.
In the same order, the values of `[2H]C([2H])([2H])Oc1ccc(C(=O)Nc2cc(F)c(F)c([C@@]3(C)N=C(N)[C@@](C)(F)C[C@@H]3F)c2)nc1` [Compound 22, N-(3-((2R,3S,5S)-6-amino-3,5-difluoro-2,5-dimethyl-2,3,4,5-tetrahydropyridin-2-yl)-4,5-difluorophenyl)-5-(methoxy-d3)picolinamide] are 3.6 nM, 101% and 0.52.

The record behind these values is patent US10059669B2, “2-amino-3,5-difluoro-3,6-dimethyl-6-phenyl-3,4,5,6-tetrahydropyridines as BACE1 inhibitors for treating alzheimer's disease” (H. Lundbeck A/S, priority 2014, dated 2018).
